Values after ≈ are worked out from the molar mass of the structure shown.
Key:
Assay type in all cases: cell-based, human
MCF-7 (mammary cancer) = settings: in vitro, MCF-7 mammary cancer cell line
From the text: (§1) The ID50 inhibition doses in ng/ml of the tested compounds are given in the table as well as those for some known reference compounds.

EVSA-T (mammary cancer) = settings: in vitro, EVSA-T mammary cancer cell line
From the text: as §1

WiDr (colon carcinoma) = settings: in vitro, WiDr colon carcinoma cell line
IGROV (ovarian cancer) = settings: in vitro, IGROV ovarian cancer cell line
M19 MEL (melanoma) = settings: in vitro, M19 MEL melanoma cell line
A 498 (renal cancer) = settings: in vitro, A 498 renal cancer cell line
[1] = test system: H226 (non small cell lung cancer); settings: in vitro, H226 non small cell lung cancer cell line

Compound	ID50 inhibition dose MCF-7 (MCF-7 (mammary cancer))	ID50 inhibition dose EVSA-T (EVSA-T (mammary cancer))	ID50 inhibition dose WiDr (WiDr (colon carcinoma))	ID50 inhibition dose IGROV (IGROV (ovarian cancer))	ID50 inhibition dose M19 (M19 MEL (melanoma))	ID50 inhibition dose A498 (A 498 (renal cancer))	ID50 inhibition dose H226 [1]
O=c1[nH]cc(F)c(=O)[nH]1 [5-fluoro-uracil, reference compound]	0.75 mg/L (≈ 5.77 µM)	0.475 mg/L (≈ 3.65 µM)	0.225 mg/L (≈ 1.73 µM)	0.297 mg/L (≈ 2.28 µM)	0.442 mg/L (≈ 3.4 µM)	0.143 mg/L (≈ 1.1 µM)	0.34 mg/L (≈ 2.61 µM)
O=C([O][Sn]([c]1ccccc1)([c]1ccccc1)[c]1ccccc1)c1ccc2c(c1)OCCOCCOCCOCCOCCO2 [Compound 1, triphenyltin 4,7,10,13,16,19-hexaoxadicyclo[16.4.0]dicosa-1,3 (20),21-triene-1-carboxylate]	0.015 mg/L	0.012 mg/L	0.013 mg/L	0.03 mg/L	0.016 mg/L	0.043 mg/L	0.037 mg/L
CCC[CH2][Sn]([CH2]CCC)([CH2]CCC)[O]C(=O)c1ccc2c(c1)OCCOCCOCCOCCOCCO2 [Compound 2, tri-n-butyltin 4,7,10,13,16,19-hexaoxadicyclo[16.4.0]dicosa-1,3(20),21-triene-1-carboxylate]	0.035 mg/L	0.006 mg/L	0.011 mg/L	0.03 mg/L	0.07 mg/L	0.097 mg/L	0.1 mg/L
CCC[CH2][Sn+2][CH2]CCC.O=C([O-])c1ccc2c(c1)OCCOCCOCCOCCOCCO2.O=C([O-])c1ccc2c(c1)OCCOCCOCCOCCOCCO2 [Compound 3]	0.155 mg/L	0.128 mg/L	0.781 mg/L	0.26 mg/L	0.219 mg/L	0.282 mg/L	0.281 mg/L
O=C([O][Sn]([c]1ccccc1)([c]1ccccc1)[c]1ccccc1)c1ccc2c(c1)OCCOCCOCCOCCO2 [Compound 5, triphenyltin 4,7,10,13,16-pentaoxadicyclo[13.4.0]cosa-1,3 (17),18-triene-1-carboxylate]	<0.003 mg/L	<0.003 mg/L	<0.003 mg/L	<0.003 mg/L	<0.003 mg/L	<0.003 mg/L	<0.003 mg/L
CCC[CH2][Sn]([CH2]CCC)([O]C(=O)c1ccc2c(c1)OCCOCCOCCOCCO2)[O]C(=O)c1ccc2c(c1)OCCOCCOCCOCCO2 [Compound 7, di-n-butyltin bis[4,7,10,13,16-pentaoxadicyclo[13.4.0]cosa-1,3(17),18-triene-1-carboxylate]]	0.273 mg/L	0.237 mg/L	0.332 mg/L	0.321 mg/L	0.286 mg/L	0.049 mg/L	0.854 mg/L
COc1cc([C@@H]2c3cc4c(cc3[C@@H](O[C@@H]3O[C@@H]5CO[C@@H](C)O[C@H]5[C@H](O)[C@H]3O)[C@H]3COC(=O)[C@H]23)OCO4)cc(OC)c1O [etoposide, reference compound]	–	–	0.15 mg/L (≈ 0.255 µM)	0.58 mg/L (≈ 0.985 µM)	0.505 mg/L (≈ 0.858 µM)	1.314 mg/L (≈ 2.23 µM)	3.934 mg/L (≈ 6.68 µM)

Reference: patent US6407265B2, “Tin polyoxaalkanecarboxylates and compositions containing them” (priority 1998, dated 2002)
